Source: patent publication US7517885B2, “Substituted [4-(4-phenyl-piperazin-1-yl)-cyclohexyl]-urea compounds” (Janssen Pharmaceutica N.V., priority 2005, dated 2009)

Experiments:
α1a-AR = biological target: T1, α1a-AR (Homo sapiens, UniProt P35348); experiment: α1-Adrenergic Receptor Binding Assay (125I-HEAT radio-ligand), α1a subtype; settings: membranes of COS-7 cells transfected with α1a subtype; 125I-HEAT 50 pM; rt 1 hr
T1 construct: expressed in transfected cells; host or cells: COS-7 cells (membranes)
T1 sequence (P35348 1-455 isoform P35348-4): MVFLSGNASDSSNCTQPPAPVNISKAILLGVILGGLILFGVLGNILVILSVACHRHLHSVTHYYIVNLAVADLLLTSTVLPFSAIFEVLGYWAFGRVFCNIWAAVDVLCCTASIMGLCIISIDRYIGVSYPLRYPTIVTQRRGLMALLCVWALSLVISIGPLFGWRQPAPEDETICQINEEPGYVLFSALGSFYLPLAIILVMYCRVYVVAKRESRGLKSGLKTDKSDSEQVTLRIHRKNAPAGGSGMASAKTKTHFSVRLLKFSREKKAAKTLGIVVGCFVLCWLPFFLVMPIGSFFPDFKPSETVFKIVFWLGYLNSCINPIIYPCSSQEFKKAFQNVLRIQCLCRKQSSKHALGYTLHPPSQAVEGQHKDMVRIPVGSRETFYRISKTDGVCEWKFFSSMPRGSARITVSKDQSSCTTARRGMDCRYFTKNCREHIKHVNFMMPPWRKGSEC
Protocol: (§1) α1-Adrenergic Receptor Binding Assay
(§2) Preparation of COS Cell Membranes
(§3) Membranes were prepared from COS-7 cells (African Green monkey kidney SV40-transformed cells) that had been transfected with one of the three α1-AR subtypes (Genbank accession number for the α1a subtype: AF013261; Genbank accession number for the α1b subtype: NM000679; Genbank accession number for the α1d subtype: NM000678) using the following method: COS cells from ten 100 mm tissue culture plates were scraped into a 5 mL volume of TE (a mixture of 50 mM Tris-HCl, 5 mM EDTA, pH 7.4). […] The disrupted cells were centrifuged at 1000×g min at 4° C. Supernatants were centrifuged at 34,500×g for 20 min at 4° C. The membrane pellets were suspended in a 2 mL volume of TNE (a mixture of 50 mM Tris-HCl, 5 mM EDTA and 150 mM NaCl at pH 7.4). An aliquot of the membrane suspension was stored at −70° C. until use. The protein concentration was determined using the BioRad “DC” protein assay kit following membrane solubilization with Triton X-100.
(§4) Radio-Ligand Binding Assay
(§5) Triplicate determinations of radio-ligand binding in the presence of increasing concentrations of testing compound were made. The reagents were added to 96-well polypropylene plate wells. […] The plate was incubated at rt for 1 hr. The contents of the wells were filtered through a glass filter (type C) (GF/C) membrane Unifilter plate (Packard Instruments) using the Packard Filtermate cell harvester. The filter plates were dried in a vacuum oven for 30 min at 40° C. 25 μL Microscint 20 liquid scintillation fluid (Packard Instruments) was added to each well. The radioactive content was analyzed in the TopCount microplate scintillation counter (Packard Instruments).

α1b-AR = biological target: T2, α1b-AR (Homo sapiens, UniProt P35368); experiment: α1-Adrenergic Receptor Binding Assay (125I-HEAT radio-ligand), α1b subtype; settings: membranes of COS-7 cells transfected with α1b subtype; 125I-HEAT 50 pM; rt 1 hr
T2 construct: expressed in transfected cells; host or cells: COS-7 cells (membranes)
T2 sequence (P35368 1-520): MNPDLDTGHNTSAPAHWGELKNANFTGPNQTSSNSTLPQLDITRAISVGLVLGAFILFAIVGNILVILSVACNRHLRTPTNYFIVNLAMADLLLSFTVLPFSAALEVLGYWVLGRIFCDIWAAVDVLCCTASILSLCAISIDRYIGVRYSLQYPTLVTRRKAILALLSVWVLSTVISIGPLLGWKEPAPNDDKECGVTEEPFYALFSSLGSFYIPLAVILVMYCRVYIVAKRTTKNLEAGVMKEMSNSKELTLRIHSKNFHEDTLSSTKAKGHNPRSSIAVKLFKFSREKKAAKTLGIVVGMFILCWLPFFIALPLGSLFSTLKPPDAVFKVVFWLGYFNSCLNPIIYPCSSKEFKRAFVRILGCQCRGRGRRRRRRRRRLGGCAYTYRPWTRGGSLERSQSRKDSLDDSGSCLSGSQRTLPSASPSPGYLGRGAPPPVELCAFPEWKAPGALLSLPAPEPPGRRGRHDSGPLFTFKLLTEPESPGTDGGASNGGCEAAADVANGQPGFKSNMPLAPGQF
Protocol: as §1, §2, §3, §4, §5

α1d-AR = biological target: T3, α1d-AR (Homo sapiens, UniProt P25100); experiment: α1-Adrenergic Receptor Binding Assay (125I-HEAT radio-ligand), α1d subtype; settings: membranes of COS-7 cells transfected with α1d subtype; 125I-HEAT 50 pM; rt 1 hr
T3 construct: expressed in transfected cells; host or cells: COS-7 cells (membranes)
T3 sequence (P25100 1-572): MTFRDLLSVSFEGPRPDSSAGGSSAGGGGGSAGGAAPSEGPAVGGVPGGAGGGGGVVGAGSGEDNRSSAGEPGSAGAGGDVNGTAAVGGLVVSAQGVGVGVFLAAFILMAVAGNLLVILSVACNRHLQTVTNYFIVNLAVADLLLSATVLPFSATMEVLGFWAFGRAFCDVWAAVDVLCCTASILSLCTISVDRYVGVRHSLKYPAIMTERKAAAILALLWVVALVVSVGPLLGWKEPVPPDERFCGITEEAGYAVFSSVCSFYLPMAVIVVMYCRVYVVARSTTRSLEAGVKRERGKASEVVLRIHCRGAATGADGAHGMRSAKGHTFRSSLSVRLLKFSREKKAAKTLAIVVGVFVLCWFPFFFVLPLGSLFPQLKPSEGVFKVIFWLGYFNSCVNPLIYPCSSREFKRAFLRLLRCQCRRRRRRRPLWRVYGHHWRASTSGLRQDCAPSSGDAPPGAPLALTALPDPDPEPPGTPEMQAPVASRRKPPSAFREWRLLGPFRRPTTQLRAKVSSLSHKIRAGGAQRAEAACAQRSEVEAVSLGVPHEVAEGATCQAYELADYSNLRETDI
Protocol: as §1, §2, §3, §4, §5

[1] = tested on: α1a and α1d subtypes over the α1b subtype; settings: cited from earlier work

Row | Ki (α1a-AR) [µM] | Ki (α1b-AR) [µM] | Ki (α1d-AR) [µM] | Structure (SMILES) | selective for the α1a and α1d subtypes over the α1b subtype [1]
1 | 0.108 | 1.05 | 0.044 | CC(C)Oc1ccccc1N1CCN([C@H]2CC[C@@H](NC(=O)Nc3cc(F)cc(F)c3)CC2)CC1 [Cpd 28, 1-(3,5-difluoro-phenyl)-r-3-{c-4-[4-(2-isopropoxy-phenyl)-piperazin-1-yl]-cyclohexyl}-urea] | –
2 | 0.0057 | 0.052 | 0.001 | CC(C)Oc1ccccc1N1CCN([C@H]2CC[C@H](NC(=O)Nc3cc(F)cc(F)c3)CC2)CC1 [Cpd 29, 1-(3,5-difluoro-phenyl)-r-3-{t-4-[4-(2-isopropoxy-phenyl)-piperazin-1-yl]-cyclohexyl}-urea] | –
3 | 0.048 | 0.277 | 0.0045 | CC(C)Oc1ccccc1N1CCN([C@H]2CC[C@@H](NC(=O)Nc3ccc(OC(F)(F)F)cc3)CC2)CC1 [Cpd 31, r-1-{c-4-[4-(2-isopropoxy-phenyl)-piperazin-1-yl]-cyclohexyl}-3-(4-trifluoromethoxy-phenyl)-urea] | –
4 | 0.181 | 0.129 | 0.058 | CC(C)Oc1ccccc1N1CCN([C@H]2CC[C@H](NC(=O)Nc3ccc(OC(F)(F)F)cc3)CC2)CC1 [Cpd 32, r-1-{t-4-[4-(2-isopropoxy-phenyl)-piperazin-1-yl]-cyclohexyl}-3-(4-trifluoromethoxy-phenyl)-urea] | –
5 | 0.037 | 0.168 | 0.0065 | COc1ccc(C)cc1NC(=O)N[C@H]1CC[C@@H](N2CCN(c3ccccc3OC(C)C)CC2)CC1 [Cpd 33, r-1-{c-4-[4-(2-isopropoxy-phenyl)-piperazin-1-yl]-cyclohexyl}-3-(2-methoxy-5-methyl-phenyl)-urea] | –
6 | 0.073 | 0.493 | 0.028 | COc1ccc(NC(=O)N[C@H]2CC[C@@H](N3CCN(c4ccccc4OC(C)C)CC3)CC2)cc1Cl [Cpd 34, 1-(3-chloro-4-methoxy-phenyl)-r-3-{c-4-[4-(2-isopropoxy-phenyl)-piperazin-1-yl]-cyclohexyl}-urea] | –
7 | 0.013 | 0.108 | 0.0023 | COc1ccc(NC(=O)N[C@H]2CC[C@H](N3CCN(c4ccccc4OC(C)C)CC3)CC2)cc1Cl [Cpd 35, 1-(3-chloro-4-methoxy-phenyl)-r-3-{t-4-[4-(2-isopropoxy-phenyl)-piperazin-1-yl]-cyclohexyl}-urea] | –

Continued, compound first:

Row | Structure (SMILES) | Ki (α1a-AR) [µM] | Ki (α1b-AR) [µM] | Ki (α1d-AR) [µM] | selective for the α1a and α1d subtypes over the α1b subtype [1]
8 | CC(C)Oc1ccccc1N1CCN([C@H]2CC[C@H](NC(=O)Nc3ccccc3Cl)CC2)CC1 [Cpd 10, 1-(2-chloro-phenyl)-r-3-{t-4-[4-(2-isopropoxy-phenyl)-piperazin-1-yl]-cyclohexyl}-urea] | 0.0114 | 0.039 | 0.003 | –
9 | CC(C)Oc1ccccc1N1CCN([C@H]2CC[C@@H](NC(=O)Nc3c(Cl)cc(Cl)cc3Cl)CC2)CC1 [Cpd 15, r-1-{c-4-[4-(2-isopropoxy-phenyl)-piperazin-1-yl]-cyclohexyl}-3-(2,4,6-trichloro-phenyl)-urea] | 0.0512 | 0.483 | 0.0253 | –
10 | CC(C)Oc1ccccc1N1CCN([C@H]2CC[C@H](NC(=O)Nc3c(Cl)cc(Cl)cc3Cl)CC2)CC1 [Cpd 16, r-1-{t-4-[4-(2-isopropoxy-phenyl)-piperazin-1-yl]-cyclohexyl}-3-(2,4,6-trichloro-phenyl)-urea] | 0.0064 | 0.112 | 0.0036 | –
11 | COc1ccc(NC(=O)N[C@H]2CC[C@H](N3CCN(c4ccccc4OC(C)C)CC3)CC2)c(C)c1 [Cpd 21, r-1-{t-4-[4-(2-isopropoxy-phenyl)-piperazin-1-yl]-cyclohexyl}-3-(4-methoxy-2-methyl-phenyl)-urea] | 0.0234 | 0.153 | 0.0216 | –
12 | CC(C)Oc1ccccc1N1CCN([C@H]2CC[C@@H](NC(=O)Nc3cc(F)ccc3F)CC2)CC1 [Cpd 24, 1-(2,5-difluoro-phenyl)-r-3-{c-4-[4-(2-isopropoxy-phenyl)-piperazin-1-yl]-cyclohexyl}-urea] | 0.0258 | 0.259 | 0.0525 | –
13 | CC(C)Oc1ccccc1N1CCN([C@H]2CC[C@H](NC(=O)Nc3cc(F)ccc3F)CC2)CC1 [Cpd 25, 1-(2,5-difluoro-phenyl)-r-3-{t-4-[4-(2-isopropoxy-phenyl)-piperazin-1-yl]-cyclohexyl}-urea] | 0.0017 | 0.0364 | 0.0012 | –
14 | CCOc1ccccc1OCCN[C@H](C)Cc1ccc(OC)c(S(N)(=O)=O)c1 [Tamsulosin] | – | – | – | about 15 fold
